Source: EP0465091B1, “Use of 3-oxygermylpropionic acid to treat cold syndrome” (SANWA KAGAKU KENKYUSHO CO., LTD., priority 1990, dated 1992)

Legend:
[1] = see JP-A-57-53800 and US-A-4309412; cited from earlier work
rats = assay: Antipyretic activity in dry yeast-induced fever (rectal temperature); type: in vivo; details: oral; for Changes in mean temperature, Time 1 hr: rectal temperature 1 hr from dosing; for Changes in mean temperature, Time 2 hr: rectal temperature 2 hr from dosing; for Changes in mean temperature, Time 4 hr: rectal temperature 4 hr from dosing; for Changes in mean temperature, Time 8 hr: rectal temperature 8 hr from dosing; for Changes in mean temperature, Time 0 hr: rectal temperature at 0 hr (18 hours after yeast, at dosing)
Procedure: A 20 % suspension of dry yeast was subcutaneously injected into a Wister line of (masculine) rats (weights: 170-200 g) at a dose of 1 ml/100 g to bring their rectal temperatures up to higher than 39°C(39.13 0.02 ) after the lapse of 18 hours. The drugs to be tested were orally administrated to these rats, six for each group, to measure their rectal temperatures at 1, 2, 4 and 8 hours from dosing. The drugs used were: • (1) 75 mg/Kg (50 mg/Kg calculated as 3-OGP) of the primary composition according to Preparation Example; • (2) 1 mg/Kg of indomethacin (IND); • (3) 5 mg/Kg of indomethacin (IND); • (4) 75 mg/Kg (50 mg/Kg calculated as 3-OGP) of the primary composition according to Preparation Example 1 + 1 mg/Kg of indomethacin - administer at once; and • (5) No drug - control.

[2] = primary composition 75mg/Kg, IND 1mg/Kg, or both

Compound: 3-oxygermylpropionic acid [3-OGP]
- stability in the presence of water [1]: so unstable in the presence of water that its pharmacological activity decreases drastically

Compound: COc1ccc2c(c1)c(CC(=O)O)c(C)n2C(=O)c1ccc(Cl)cc1 [IND, Indomethacin]
- Changes in mean temperature, Time 1 hr (rats; IND 5mg/Kg): 38.35 °C
- Changes in mean temperature, Time 1 hr (rats; [2]): 38.81 °C
- Changes in mean temperature, Time 2 hr (rats; IND 5mg/Kg): 37.67 °C
- Changes in mean temperature, Time 2 hr (rats; [2]): 38.65 °C
- Changes in mean temperature, Time 4 hr (rats; IND 5mg/Kg): 37.75 °C
- Changes in mean temperature, Time 4 hr (rats; [2]): 38.44 °C
- Changes in mean temperature, Time 8 hr (rats; IND 5mg/Kg): 37.94 °C
- Changes in mean temperature, Time 8 hr (rats; [2]): 38.30 °C
- Changes in mean temperature, Time 0 hr (rats; IND 5mg/Kg): 39.13 °C
- Changes in mean temperature, Time 0 hr (rats; [2]): 39.13 °C
